Patent US6949522B2, “β-2′- or 3′-halonucleosides” (Pharmasset, Inc., priority 2001, dated 2005)
Read-outs that look alike come from different tables or passages of the source.

Experiments:
[1] = tested on: mitochondrial cytochrome C oxidase subunit II (COXII) gene; format: cell-based, human; settings: HepG2, 10 μM, 7 days; for COXIINrDNA (range) relative to control: COXII DNA normalized to rDNA
Source text: The Q-RT-PCR technology was also used to evaluate potential mitochondrial γ-DNA polymerase inhibition by the compounds of the present invention in relevant human cells. […] Since active nucleoside compounds in the triphosphate form lack a 3′-OH, thereby stopping virus replication by chain termination, there is a concern that these nucleoside analogues are also substrates for the human DNA polymerase γ, resulting in inhibition of mitochondrial DNA replication and subsequently toxic side effects (11, 19). In an attempt to provide direct quantifiable data on mitochondrial DNA levels intracellular, a Q-PCR technology was designed and relative quantification of COXII DNA levels were calculated using the comparative Ct method. […] Also, in agreement with previous observations, no changes in normalized mitochondrial DNA levels were observed after FIAU and D4T treatment (6, 8, 23).
Low passage number HepG2 cells, obtained from American Tissue Culture Collection (ATCC, Manassas, Va.) were seeded at 5,000 cells/well in collagen-coated 96-well plates. Test compounds were added to the media to obtain a final concentration of 10 μM. On culture day 7, cellular nucleic acids were prepared by using commercially available columns (RNeasy 96 kit, Qiagen). […] The mitochondrial cytochrome C oxidase subunit II (COXII) gene and the β-actin or rRNA gene were amplified from 5 μL with a multiplex Q-PCR protocol using the suitable primers and probes for both target and reference (designed using the Primer Express software, Applied Biosystems); • for COXII. • sense primer 5′-[…]-3′ (Sequence 7); • probe 5′-TET-[…]-TAMRA-3′ (Sequence 8); and • antisense probe 5′-[…]-3′ (Sequence 9); • for exon 3 of β-actin (GenBank E01094): • sense primer 5′-[…]-3′ (Sequence 10); • probe 5′-6FAM-[…]-TAMRA-3′ (Sequnece 11); and • antisense probe 5′-[…]-3′ (Sequence 12).
The rRNA gene primers and probes were purchased from Applied Biosystems. Standard curves using 1-log diluted total HepG2 DNA were linear over more than 5 logs. In addition, efficiencies of target (COXII DNA) and reference (β-actin DNA or rRNA) amplification were approximately equal, because the slope of the ΔCt line (Ct β-actin minus Ct mitochondrial) was less than 0.1 (not shown). Since equal amplification efficiencies were obtained for both genes, the comparative cycle threshold (Ct) method was used to investigate potential inhibition of the mitochondrial DNA polymerase γ. The comparative Ct method uses arithmetic formulas in which the amount of target (COXII gene) is normalized to an endogenous reference (β-actin gene or rRNA gene) and is relative to a calibrator (no drug control at day 7). The arithmetic formula for this approach is given by 2-ΔΔCt (User bulletin # 2, Applied Biosystems).
In order to study the consequences of possible inhibitory effects of these compounds on host DNA polymerases, nuclear and rnitochondrial DNA levels were quantified and compared to no-treatment controls. Cells were incubated for 7 days with 10 μM of each compound, followed by total nucleic acid extractions and multiplex Q-PCR of the rRNA gene and the mitochondrial COXII gene. Nucleic acids from cells exposed to the control compounds were also amplified in multiplex for mitDNA and the β-actin gene. The results are presented in Table 4 using the comparative Ct method.

[2] = tested on: 3TC-resistant (xxBRU 184V) HIV-1; test: HIV-1 Q-RT-PCR assay in human PBM cells, strain xxBRU 184V; format: cell-based; settings: for EC90: read-out: Q-RT-PCR HIV-1 assay 184V EC90
Description: Human PBM cells (1×10^6 cells/T25 flask) were PHA stimulated for 2 or 3 days, and infected with either a wild type (LAI and xxBRU) or a 3TC-resistant (xxBRU 184V) HIV-1 strain at 100 TCID50, as previously described (27). The culture was kept for 5 days in presence of test compounds at serial 1-log dilutions. Subsequently, human PBM cells were removed from the culture supernatant by centrifugation (10 minutes, 400×g, 4° C.). This clarified supernatant was tested either in the RT-assay, or in the Q-RT-PCR assay.
Viral RNA present in the culture supernatant was prepared using commercially available columns (QIAamp Viral RNA mini Kit, Qiagen, Valencia, Calif.). Viral RNA was detected in real-time by monitoring increases in fluorescence signal that resulted from degradation of a quenched fluorescent probe molecule following the hybridization of the probe to the arnplified viral DNA (TaqMan 7700 chemistry, Applied Biosystems, Foster City, Calif.). The TaqMan probe and primers were designed using the Primer Express software (Applied Biosystems); they cover highly conserved sequences complementary to an 81 base pair long fragment from the HIV-1 RT gene between codon 230 and 257 of the group MHIV-1 genome; • probe 5′-6FAM-[…]-TAMRA-3′ (Sequence 1) • sense primer: 5′-[…]-3′ (Sequence 2); and • antisense primer 5′-[…]-3′ (Sequence 3).
A total of 5 μL RNA was RT-amplified using reagents and conditions as described by the manufacturer (Applied Biosystems). […] Copy numbers were calibrated using the Roche Amplicor HIV-1 Monitor test™ (Roche Diagnostics, Branchburg, N.J.) on a 1-log dilution series of a clinical HIV-1 genotype B isolate (attenuated in vitro to obtain a high viral load). The 10-6 diluted sample became positive at threshold cycle (Ct=PCR cycle threshold where a sample becomes detectable)=35.52, which corresponded to 1,410 copies/mL in the Roche monitor HIV-1 version II assay. When validated over a dynamic range of 3 logs of virus, there was excellent correlation (r2˜1) between the two methodologies. […] Therefore, the currently designed primer and probe set allowed reliable quantification of both clinical samples and HIV-1 in vitro preparations.
HIV-1 present in culture supernatant fluids was quantified by two different methodologies: i) the Q-RT-PCR with read-out in log copies/mL; and ii) the endogenous viral RT assay on cell supernatant with read-out in log counts per minute/mL (CPM/mL). Upon addition of antiviral compounds to the culture media, a dose-related decrease in virus production was observed. Although the two methodologies measured different parameters (viral RNA versus active RT enzyme), results were not markedly different from each other. The HIV-1 Q-RT-PCR results were compared with a previously established cell-based antiviral drug evaluation assay (endogenous HIV-1 RT polymerization activity in cell supematant)(27).

[3] = tested on: HepG2; test: Toxicity assay (MTS/MTT dye), HepG2 cells; settings: for Cytotoxicity HepG2 IC30: HepG2, three day-incubation (Table 1); for IC50: read-out: Cytotoxicity HepG2 IC50, HepG2, three day-incubation (Table 3)
Description: After a three day-incubation for HepG2, or 5 days for human PBM cells, cell viability and mitochondrial activity were measured in a colorimetric assay using the MTS- or MTT dye method (Promega, Madison, Wis.).

[4] = human PBM cells, 5 days, viral RNA reduced by 90%
[5] = Human immunodeficiency virus 1, PBMC, 120 h

SMILES	COXIINrDNA (range) relative to control ([1]; 2-ΔΔCt)	Average ΔCt ± SD COXII DNA [1]	Average ΔΔCt ± SD COXII-rDNA [1]	Q-RT-PCR HIV-1 assay FI, fold increase (EC90 HIV-1184V/EC90 HIV-1xxBRU) [2]	EC90 [2, 4]	Cytotoxicity HepG2 IC30 [3]	IC50 [3]	Average ΔΔCt ± SD COXII-β-actin [1]	EC90 [2, 5]	COXIINβ-actin DNA (range) relative to control ([1]; COXII DNA normalized to β-actin DNA, 2-ΔΔCt)
Nc1ccn([C@@H]2S[C@H](CO)C=C2F)c(=O)n1 [Compound D-17, (−)-1-[(1S,4R)-2,3-dideoxy-2,3-didehydro-2-fluoro4-thio-β-D-ribofuranosyl]-cytosine]	1.94 (1.31-2.87)	−0.14 ± 0.10	−0.96 ± 0.56	12.8	65.8 µM	>100 µM	> 100 µM			
Cc1cn([C@H]2C[C@H](N=[N+]=[N-])[C@@H](CO)O2)c(=O)[nH]c1=O [AZT, 3′-azido-3′-deoxythymidine, reference compound]		0.25 ± 0.13	−0.61 ± 0.56					0.16 ± 0.44	0.01 µM	
Nc1ccn([C@H]2S[C@@H](CO)C=C2F)c(=O)n1 [Compound L-17, (+)-1-[(1S,4R)-2,3-dideoxy-2,3-didehydro-2-fluoro-4-thio-β-L-ribofuranosyl]-cytosine]	1.46 (0.87-2.47)	−0.05 ± 0.16	−0.55 ± 0.75	>50	> 100 µM	>100 µM	> 100 µM			
Nc1nc(=O)n([C@H]2S[C@@H](CO)C=C2F)cc1F [Compound L-18, (+)-1-[(1S,4R)-2,3-dideoxy-2,3-didehydro-2-fluoro-4-thio-β-L-ribofuranosyl]-5-fluoro-cytosine]	1.12 (0.76-1.64)	−0.06 ± 0.24	−0.16 ± 0.56	>100	> 100 µM	>100 µM	> 100 µM			
Nc1ccn([C@@H]2C=C(F)[C@H](CO)O2)c(=O)n1 [Compound 10, 1-(2,3-Dideoxy-3-fluoro-β-L-glycero-pent-2-eno-furanosyl)cytosine]	1.16 (0.81-1.64)	−0.29 ± 0.19	−0.21 ± 0.51			>100 µM			> 100 µM	
Nc1ccn([C@@H]2C=C(F)[C@H](CO)O2)c(=O)n1 [Compound 23, 1-(2,3-Didcoxy-3-fluoro-β-L-glycero-pent-2-eno-furanosyl)cytosine]	0.78 (0.59-1.04)	−0.16 ± 0.17	0.36 ± 0.41	115	68.4 µM		> 100 µM			
Nc1ccn([C@@H]2CS[C@H](CO)O2)c(=O)n1 [Compound 3TC, (−)-β-2′,3′-dideoxy-3′-thiacytidine, reference compound]	1.31 (0.92-1.88)	0.08 ± 0.33	−0.39 ± 0.50	>1,562		>100 µM		−0.02 ± 0.43	> 100 µM	1.02 (0.75-1.37)
Nc1nc(=O)n([C@@H]2S[C@H](CO)C=C2F)cc1F [Compound D-18, (−)-1-[(1S,4R)-2,3-dideoxy-2,3-didehydro-2-fluoro-4-thio-β-D-ribofuranosyl]-5-fluorocytosine]	0.96 (0.78-1.17)	−0.39 ± 0.43	0.06 ± 0.29		> 100 µM	>100 µM	> 100 µM			
